Measurements as given in PubChem BioAssay AID449764 (Southern Research Specialized Biocontainment Screening …, 2010).
pIC50: −log10 of the molar value.

System: Mycobacterium tuberculosis H37Rv growth inhibition, no glycerol
Assay: Mycobacterium tuberculosis H37Rv growth inhibition, no glycerol, confirmatory dose response (AID 449764);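 note: growth read after 7 days of incubation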
Conditions: for IC90: measured here: IC90 growth inhibition

Cc1ccc(C)c(NNC(N)=S)c1
pIC50: 4.80
IC90: 29.2 µM

CSc1nsc(/C=C/Nc2ccc(O)cc2C)c1C#N
pIC50: 4.35
IC90: 49.6 µM

CS/C(Nc1cc(Cl)ccc1Cl)=C(/C#N)C(=O)c1ccco1
pIC50: 4.69
IC90: > 100 µM

O=C(/C=C/c1ccc(O)cc1)c1ccc(NC2=C(N3CCCCC3)C(=O)c3ccccc3C2=O)cc1
pIC50: 4.76
IC90: 22.4 µM

O=C(Oc1c(Cl)cc(Cl)c2cccnc12)c1cccs1
pIC50: 5.89
IC90: 1.38 µM

O=C(Oc1ccc(-c2cn3c(n2)SCC3)cc1)c1ccccc1
pIC50: 4.14
IC90: > 100 µM

CC(C)(C)c1ccc(OCCC(=O)OCC(=O)NC(=O)NC2CCCC2)cc1
pIC50: 4.93
IC90: 18.9 µM

C[C@@H]1CCCCCCCCC(=O)OCCN[C@H](C)CCCCCCCCC(=O)OCCN[C@H](C)CCCCCCCCC(=O)OCCN1
pIC50: 4.50
IC90: 43.3 µM

O=C(c1ccccc1)c1nn(-c2ccc(Cl)cc2)c(=O)cc1C(F)(F)F
pIC50: 4.70
IC90: 31.1 µM

Cn1/c(=N/NC(=O)c2cccc(OC(F)F)c2)sc2ccccc21
pIC50: 5.04
IC90: 24.1 µM

Cc1ccnc(NC(=O)c2cc3ccccc3o2)c1
IC90: > 50 µM

Cc1ccc(NC(=O)Cn2ccsc2=N)c([N+](=O)[O-])c1
pIC50: 4.73
IC90: 34.7 µM

Cc1ccc(C(C)C)c(OCC(=O)OCc2c(C)noc2C)c1
pIC50: 5.33
IC90: 6.88 µM

Cc1ccc(-c2nc3c(c(=O)c4ccccc4n3C)c(=O)n2Cc2ccco2)cc1
pIC50: 4.60
IC90: 40.2 µM

CCCCC(O)(CCCC)C(=O)NN(C(=O)CCl)c1ccccc1
pIC50: 4.95
IC90: 22.8 µM

CC(C)(C)c1nn(-c2ccccc2)c2[nH]c(=O)c(CNCc3ccc4c(c3)OCO4)cc12
pIC50: 4.68
IC90: 34.4 µM

Cc1ncsc1CCOC(=O)c1ccc([N+](=O)[O-])cc1
pIC50: 4.70
IC90: 37.2 µM

CC(C)Nc1nc(NC(C)C)nc(N(C)N)n1
pIC50: 4.49
IC90: 47.9 µM

Cn1nc(C(C)(C)C)cc1NC(=O)Nc1cc(Cl)cc(Cl)c1
pIC50: 4.74
IC90: 25.6 µM

CCCC(=O)OCCNc1cc(SCCC(=O)OC)c2nonc2c1[N+](=O)[O-]
pIC50: 5.23
IC90: 6.66 µM

Cc1c(C(=O)Nc2nc3ccccc3[nH]2)oc2c(Cl)cccc12
pIC50: 4.09
IC90: > 100 µM

CCOc1cc(/C=N/Nc2nc(Nc3ccccc3)nc(N3CCCCC3)n2)ccc1OCC(=O)O
pIC50: 4.69
IC90: 27.6 µM

CCc1nnc(NS(=O)(=O)c2ccc(N/C=C\C(=O)c3cccc(OC)c3)cc2)s1
pIC50: 4.41
IC90: 53 µM

NC1=NC2(CCC(c3ccccc3)CC2)n2c(nc3ccccc32)N1 (configuration not stated)
pIC50: 4.49
IC90: 43.7 µM

O=S(=O)(Nc1ccc2[nH]ncc2c1)c1ccccc1Cl
pIC50: 4.95
IC90: 17.1 µM

COc1ccc(C(=O)/C=C/c2cc(OC)c(O)c(OC)c2)c(F)c1
pIC50: 4.22
IC90: > 100 µM

Cc1occc1-c1nnc(SCC(=O)NCCc2ccccc2)o1
pIC50: 4.78
IC90: 25.2 µM

CCc1cc2c(=O)n(C(C)C(=O)OC3CCCCC3)cnc2s1 (configuration not stated)
pIC50: 4.62
IC90: 52 µM

O=C(COC(=O)C1=COCCO1)NCc1ccc(Cl)cc1
pIC50: 4.55
IC90: > 100 µM

CCn1c(NC(=O)c2nn(C)cc2Br)nc2ccccc21
pIC50: 5.02
IC90: 16.8 µM

Cc1ccccc1Cn1cc(NC(=O)c2noc(C(C)C)c2[N+](=O)[O-])cn1
pIC50: 5.30
IC90: 8.45 µM

Nc1ccc(C(=O)OCCCc2nc3cc4ccccc4cc3[nH]2)cc1
pIC50: 4.43
IC90: 59.3 µM

CCC(C)c1ccc2oc(-c3ccc(NC(=O)c4ncn[nH]4)cc3)nc2c1 (configuration not stated)
pIC50: 5.09
IC90: 33 µM

N#Cc1c(SCC(N)=O)nsc1SCc1ccccc1Cl
pIC50: 4.34
IC90: > 100 µM

Cc1oc(-c2cccc(Cl)c2)nc1CN1CCC(C(=O)N2CCN(c3ccccc3F)CC2)CC1
pIC50: 4.73
IC90: 26.4 µM

CC(C)C1N=C(c2ccc3c(c2)OCO3)CC(c2ccccc2O)N1 (configuration not stated)
pIC50: 4.35
IC90: 50.9 µM

CSc1cccc(NC(=O)CCS(=O)(=O)c2cccc3nonc23)c1
pIC50: 5.25
IC90: 9.26 µM

CC(C)(C)c1ccc(C(=O)NC(=S)NNC(=O)COc2ccccc2)cc1
pIC50: 4.54
IC90: 42.9 µM

COc1ccc(Nc2nc(N3CCCCC3)nc3ccccc23)c(OC)c1
pIC50: 4.64
IC90: 26 µM

C=CCN(C(=O)CSc1nc2c(sc3ccccc32)c(=O)n1CCN(CC)CC)c1ccccc1
pIC50: 4.51
IC90: 38.8 µM

COc1cc(N=Nc2ccc3ccccc3c2)ccc1O
pIC50: 4.40
IC90: 59.1 µM

CN(C)C(=O)C1C2NC(=S)N(c3ccc(Cl)cc3)C1(C)Oc1ccc(Cl)cc12 (configuration not stated)
pIC50: 4.50
IC90: 55.5 µM

CCc1ccc2[nH]c(=O)c(CN(CCCN3CCOCC3)C(=O)Nc3cccc(Cl)c3)cc2c1
pIC50: 4.47
IC90: 40.5 µM

CCCOc1ccc2c(c1)C(=NN=C(N)N)c1cc(OCCC)ccc1-2
pIC50: 4.96
IC90: 18.1 µM

O=C(NC(C(=O)N/N=C/c1cccc2ccccc12)c1n[nH]c(=O)c2ccccc12)c1ccccc1 (configuration not stated)
pIC50: 4.23
IC90: > 100 µM

COc1ccccc1C(CNC(=O)C(C)(C)Oc1ccc(Cl)cc1)N1CCCC1 (configuration not stated)
pIC50: 4.57
IC90: 42 µM

Cn1cc(NC(=O)CCl)cn1
pIC50: 5.07
IC90: 16.1 µM

c1ccc(CC2CCN(C3=Nc4cccc5cccc3c45)CC2)cc1
pIC50: 4.55
IC90: 37.9 µM

COC(=O)CSc1nnc(CNc2ccc(Cl)cc2)n1-c1ccccc1
pIC50: 4.65
IC90: 25.3 µM

CC(=O)O[C@H]1C[C@@]2(C)[C@@H](C[C@@H](O)[C@H]3[C@@]4(C)CC[C@@H](O)[C@@H](C)[C@@H]4CC[C@@]32C)/C1=C(\CCC=C(C)C)C(=O)O
pIC50: 5.53
IC90: 6.55 µM

CCCCOc1ccc(C(=O)N/N=C/c2ccc(OCCN3CCCCC3)c(OC)c2)cc1
pIC50: 4.36
IC90: 47.8 µM

CCOc1cc(CNCCCN2CCOCC2)cc(Br)c1OCC(=O)Nc1cccc(C(F)(F)F)c1
pIC50: 4.63
IC90: 32 µM

Cc1ccc(-n2cc(CNCCn3nc(C)cc3C)c(-c3ccc(F)cc3)n2)cc1
pIC50: 5.09
IC90: 13.5 µM

Cc1ccc2nc(N/N=C/c3ccccc3C#N)nc(-c3ccccc3)c2c1
pIC50: 4.04
IC90: > 100 µM

C=C1CCC[C@]2(C)C[C@H]3OC(=O)C(CNC(C)CCCC(C)C)[C@H]3CC12 (some centres not stated)
pIC50: 4.63
IC90: 26.2 µM

CCCCC(=O)Nc1sc2c(c1C(=O)OCC)CCC(C=O)=C2Cl
pIC50: 4.41
IC90: > 100 µM

CCn1c2ccccc2c2cc(CNCc3ccc(OC)cc3OC)ccc21
pIC50: 4.91
IC90: 14 µM

Cn1nc([N+](=O)[O-])nc1Sc1ccc(C(C)(C)C)cc1
pIC50: 5.05
IC90: 17.1 µM

CCN(CC)S(=O)(=O)c1ccc2oc(SCC(=O)Nc3cc(C)on3)nc2c1
pIC50: 4.97
IC90: 16.6 µM

Cc1cc2cc(CNC(=O)NC3CCCCC3)ccc2[nH]1
pIC50: 4.44
IC90: 53.7 µM

COC(=O)C(C)Oc1ccc(Cc2ncc(C(F)(F)F)cc2Cl)cc1 (configuration not stated)
pIC50: 5.46
IC90: 5.97 µM

COc1ccc(-n2nc3c(c2NC(=O)CCl)CSC3)cc1
pIC50: 5.16
IC90: 12.5 µM

CCOC(=O)c1c(NC(=O)CSc2nc3ccc(OC)cc3[nH]2)sc2c1CC(C)(C)NC2(C)C
pIC50: 4.40
IC90: 53.7 µM

CC(Oc1cc2oc(=O)c3c(c2cc1Cl)CCCC3)C(=O)NCc1ccccn1 (configuration not stated)
IC90: > 100 µM

CCOC(=O)c1nn(-c2ccc(C)c(C)c2)cc1O
pIC50: 4.00
IC90: > 100 µM

Cc1ccc(NCCC(=O)c2ccc(Br)cc2)cc1
pIC50: 4.58
IC90: 43.8 µM

Cc1nc2scc(-c3cccs3)c2c(=O)n1-n1cccc1
pIC50: 4.05
IC90: > 100 µM

CN1CCN(CC(=O)N2CCn3c4c(c5cc(C6CCCCC6)ccc53)CCCC42)CC1 (configuration not stated)
pIC50: 4.74
IC90: 21.6 µM

COc1cc(/C=N/NC(=O)COc2ccc(C)cc2)ccc1OC(=O)c1cccs1
pIC50: 4.59
IC90: 30.1 µM

Cc1ccc(-n2c(C)cc(/C=N/NC(N)=S)c2C)cc1
pIC50: 4.91
IC90: 20 µM

CCOC(=O)CSc1nnc(-c2c[nH]c3ccccc23)o1
pIC50: 5.06
IC90: 22.1 µM

Cc1ccc(/C=N/NC(=S)NC(C)C)o1
pIC50: 4.37
IC90: 46.7 µM

COC(=O)CCCCC1SCC(NC(=O)c2ccccc2)C1=O (configuration not stated)
pIC50: 4.43
IC90: 49.8 µM

COc1cc(C2c3cc4c(cc3C(OC3OC5COC(c6cccs6)OC5C(O)C3O)C3COC(=O)C23)OCO4)cc(OC)c1O (configuration not stated)
pIC50: 4.56
IC90: 35.4 µM

Cc1ccc(N2CCN(C(=O)c3cn(CC4CCCCC4)nn3)C(C)C2)cc1 (configuration not stated)
pIC50: 4.40
IC90: 50.3 µM

COc1cc2c(C(=O)N3CCN(c4cccc(Cl)c4)CC3)cn(CC(C)C)c(=O)c2cc1OC
pIC50: 4.32
IC90: 73.4 µM

CC1=CC(=O)C(C(C)C)=C/C1=N/OS(=O)(=O)c1ccccc1
pIC50: 5.37
IC90: 7.65 µM

Cc1c(Cl)ccc2c1NC(=O)[C@]21N[C@@H](Cc2ccccc2)[C@H]2C(=O)N(c3ccc(F)cc3)C(=O)[C@H]21
pIC50: 4.63
IC90: 26.6 µM

CCOC(=O)C(C)Oc1ccc(NC(=O)C(Cl)(Cl)Cl)cc1 (configuration not stated)
pIC50: 5.40
IC90: 5.86 µM

CN(CCCCCCCCCCN(C)C(=O)Oc1cccc([N+](C)(C)C)c1)C(=O)Oc1cccc([N+](C)(C)C)c1
pIC50: 5.66
IC90: 3.44 µM

Oc1ccc(CN2CCc3ccccc3C2)c2cccnc12
pIC50: 4.14
IC90: > 100 µM

COc1ccc(N(CC(=O)Nc2cc(Cl)ccc2C)S(=O)(=O)c2c(C)n[nH]c2C)cc1
pIC50: 4.39
IC90: 52.7 µM

CC(C)[C@H](CO)N(Cc1cccc(F)c1)c1nc(Nc2cccc(Cl)c2)c2ncn(C(C)C)c2n1
pIC50: 4.43
IC90: 57.4 µM

O=C(Cc1ccc([N+](=O)[O-])cc1)Nc1cc(C(F)(F)F)cc(C(F)(F)F)c1
pIC50: 5.61
IC90: 3.41 µM

Cc1nc(N2CCN(c3ccccn3)CC2)c2c(C)c(C(=O)N3CCN(c4ccc(F)cc4)CC3)sc2n1
pIC50: 4.95
IC90: 12.9 µM

O=C(COc1cccc(Oc2ccccc2)c1)Nc1ncccn1
pIC50: 4.30
IC90: > 100 µM

O=C(CSc1nnnn1C1CCCCC1)Nc1nc2c(s1)CCCC2
pIC50: 4.33
IC90: 53.1 µM
